Data reported in US20110190365A1, “Insecticidal 4-phenyl-1H-pyrazoles” (Bayer Crop Science AG, priority 2008, published 2011).

How the values were obtained:
[1] = log P by HPLC on a reversed-phase column (C18), EEC Directive 79/831 Annex V.A8; assay type: physicochemical; details: for chromatographic logP: read-out: log P (HCOOH)
Procedure: The stated log P values were determined in accordance with EEC Directive 79/831 Annex V.A8 by HPLC (High Performance Liquid Chromatography) using a reversed-phase column (C18).

[2] = system: larvae of the mustard beetle (Phaedon cochleariae); test: Phaedon cochleariae test (PHAECO spray treatment); assay type: in vivo; details: application rate 500 g/ha, Chinese cabbage leaf discs sprayed, after 7 days; for pest or weed control at 500 g/ha: Phaedon cochleariae, foliar, 168 h, read-out: effect in % (beetle larvae killed)
Procedure: Phaedon cochleariae Test (PHAECO Spray Treatment)
Solvent: 78.0 parts by weight of acetone • • 1.5 parts by weight of dimethylformamide Emulsifier: 0.5 part by weight of alkylaryl polyglycol ether
To produce a suitable preparation of active compound, 1 part by weight of active compound is mixed with the stated amounts of solvent and emulsifier, and the concentrate is diluted with emulsifier-containing water to the desired concentration.
Discs of Chinese cabbage (Brassica pekinensis) are sprayed with an active compound preparation of the desired concentration and, after drying, populated with larvae of the mustard beetle (Phaedon cochleariae).
After 7 days, the effect in % is determined. 100% means that all beetle larvae have been killed; 0% means that none of the beetle larvae have been killed.

[3] = HPLC, reversed-phase C18, mobile phase with formic acid

**Q.** What does the source list for `Cc1cc(-n2nc(C(F)(F)F)c(-c3cc(Cl)cc(Cl)c3)c2Cl)ccc1C(=O)NC(C)C(F)(F)F` (centres unmarked) [I-A-Q2-022, 4-[5-Chloro-4-(3,5-dichlorophenyl)-3-trifluoromethylpyrazol-1-yl]-2-methyl-N-(2,2,2-trifluoro-1-methylethyl)benzamide]?
**A.** chromatographic logP [1, 3]: 5.59; pest or weed control at 500 g/ha [2]: > 80%

**Q.** With `CC[S+]([O-])c1ccn(-c2ccc(-n3nc(C(F)(F)F)c(-c4cc(Cl)cc(Cl)c4)c3N)cc2C#N)n1` (centres unmarked) [I-A-Q1-090] as the molecule, how does the “log P (HCOOH)” value [1, 3] read?
**A.** I-A-Q1-090: log P (HCOOH): 3.47

**Q.** What about the “effect in % (beetle larvae killed)” value [2] of the same molecule?
**A.** 100%

**Q.** Which results are given for `Nc1c(-c2cc(Cl)cc(Cl)c2)c(C(F)(F)F)nn1-c1ncc(C(=O)NCc2ccccn2)c(C(F)(F)F)n1` [I-A-Q2-020, N-(Pyridin-2-ylmethyl)-2-[5-amino-4-(3,5-dichlorophenyl)-3-trifluoromethylpyrazol-1-yl]-4-trifluoromethylpyrimidine-5-carboxamide]?
**A.** chromatographic logP [1, 3]: 3.54; pest or weed control at 500 g/ha [2]: > 80%

**Q.** Which chromatographic logP [1, 3] does the source give for `N#Cc1cc(-n2nc(C(F)(F)F)c(-c3cc(Cl)cc(C(F)(F)F)c3)c2N)ccc1-n1nc[nH]c1=O` [I-A-Q1-002, 5-[5-Amino-4-(3-chloro-5-trifluoromethylphenyl)-3-trifluoromethylpyrazol-1-yl]-2-(5-oxo-4,5-dihydro[1,2,4]triazol-1-yl)benzonitrile] here?
**A.** 3.45

**Q.** And the pest or weed control at 500 g/ha [2]?
**A.** > 80%

**Q.** Which “log P (HCOOH)” value ([1]; HCOOH) does the source give for `CSc1c(-c2cc(Cl)cc(C(F)(F)F)c2)c(C(F)(F)F)nn1-c1ccc(C(=O)NC(C)C(F)(F)F)cc1` (centres unmarked) [I-A-Q2-068] here?
**A.** I-A-Q2-068: log P (HCOOH): 5.35

**Q.** With `Cc1nn(-c2ccc(C(=O)NC(C)C(F)(F)F)cc2)c(Br)c1-c1cccc(Cl)c1` (centres unmarked) [I-A-Q2-098] as the molecule, how does the “log P (HCOOH)” value ([1]; HCOOH) read?
**A.** I-A-Q2-098: log P (HCOOH): 4.36

**Q.** For `Cc1cc(-n2nc(C(F)(F)F)c(-c3cc(Cl)cc(Cl)c3)c2N)ccc1C(=O)NCc1ccncc1` [I-A-Q2-212], which “log P (HCOOH)” value ([1]; HCOOH) is on record?
**A.** I-A-Q2-212: log P (HCOOH): 2.27

**Q.** With `Cc1cc(-n2nc(C(F)(F)F)c(-c3cc(Cl)cc(Cl)c3)c2N)ccc1C(=O)NCC1CCCCC1` [I-A-Q2-263] as the molecule, how does the “log P (HCOOH)” value ([1]; HCOOH) read?
**A.** I-A-Q2-263: log P (HCOOH): 5.08

**Q.** For `CNC(=O)c1ccc(-n2nc(C(F)(F)F)c(-c3cc(Cl)cc(Cl)c3)c2N)cc1` [I-A-Q2-193], which “log P (HCOOH)” value ([1]; HCOOH) is on record?
**A.** I-A-Q2-193: log P (HCOOH): 3.42

**Q.** Which “log P (HCOOH)” value ([1]; HCOOH) does the source give for `Nc1c(-c2ccc(Br)cc2)c(C(F)(F)F)nn1-c1ccc(C(=O)NCc2ccccn2)cc1` [I-A-Q2-191] here?
**A.** I-A-Q2-191: log P (HCOOH): 2.57

**Q.** For `Nc1c(-c2ccc(Br)cc2)c(C(F)(F)F)nn1-c1ccc(Cl)cn1` [I-A-Q4-042], which “log P (HCOOH)” value ([1]; HCOOH, Table 4, compounds of formula I-A-Q4) is on record?
**A.** I-A-Q4-042: log P (HCOOH): 5.22

**Q.** Which “log P (HCOOH)” value ([1]; HCOOH) does the source give for `Cc1cc(-n2nc(C(F)(F)F)c(-c3ccccc3Br)c2N)ccc1C(=O)NCC1CC1` [I-A-Q2-422] here?
**A.** I-A-Q2-422: log P (HCOOH): 3.41

**Q.** Which “log P (HCOOH)” value ([1]; HCOOH) does the source give for `Cc1cc(-n2nc(C(F)(F)F)c(-c3ccc(C#N)cc3)c2N)ccc1C(=O)NCc1ccccn1` [I-A-Q2-349] here?
**A.** I-A-Q2-349: log P (HCOOH): 2.04

**Q.** With `Cc1cc(-n2nc(C)c(-c3c(F)cccc3Cl)c2N)ccc1C(=O)NCC(F)(F)C(F)F` [I-A-Q2-334] as the molecule, how does the “log P (HCOOH)” value ([1]; HCOOH) read?
**A.** I-A-Q2-334: log P (HCOOH): 2.59

**Q.** With `COC(C)c1nn(-c2ccc(-n3cncn3)c(C#N)c2)c(N)c1-c1cc(Cl)cc(C(F)(F)F)c1` (centres unmarked) [I-A-Q1-023] as the molecule, how does the “log P (HCOOH)” value [1, 3] read?
**A.** I-A-Q1-023: log P (HCOOH): 2.76

**Q.** For `CC(C)(CC(F)(F)F)NC(=O)c1ccc(-n2nc(C(F)(F)F)c(-c3cc(Cl)cc(Cl)c3)c2N)nc1` [I-A-Q2-099], which “log P (HCOOH)” value ([1]; HCOOH) is on record?
**A.** I-A-Q2-099: log P (HCOOH): 5.42

**Q.** Which “log P (HCOOH)” value ([1]; HCOOH) does the source give for `CC(NC(=O)c1ccc(-n2nc(C(F)(F)F)c(-c3cc(Cl)cc(Cl)c3)c2N)nc1)c1ccccn1` (centres unmarked) [I-A-Q2-102] here?
**A.** I-A-Q2-102: log P (HCOOH): 4.06

**Q.** For `COC(C)c1nn(-c2ccc(C(=O)NCC(F)(F)C(F)F)c(C)c2)c(N)c1-c1cc(Cl)cc(C(F)(F)F)c1` (centres unmarked) [I-A-Q2-291], which “log P (HCOOH)” value ([1]; HCOOH) is on record?
**A.** I-A-Q2-291: log P (HCOOH): 3.84

**Q.** For `Cc1cc(-n2nc(C)c(-c3ccc(Cl)cc3)c2N)ccc1C(=O)NCC(F)(F)C(F)F` [I-A-Q2-330], which “log P (HCOOH)” value ([1]; HCOOH) is on record?
**A.** I-A-Q2-330: log P (HCOOH): 3.12
